Experimental data taken from the NIST ThermoML archive (doi:10.1016/j.jct.2015.08.014).
± gives the expanded uncertainty stated by the source.

Test: xn = mol fraction of the nth substance listed
Settings: 100 kPa, Liquid; for electrical conductivity: Alternating current cell with electrodes; for mass density: Vibrating tube method; for viscosity: Capillary tube (Ostwald / Ubbelohde) method

CCCC[N+]1(C)CCCC1.N#CN=C=[N-] [1-butyl-1-methylpyrrolidinium dicyanamide] + O=C1CCCO1
electrical conductivity [S/m]
Settings | Frequency=0.0005 MHz | Frequency=0.001 MHz | Frequency=0.0015 MHz | Frequency=0.002 MHz | Frequency=0.0025 MHz | Frequency=0.003 MHz | Frequency=0.00347222 MHz | Frequency=0.01 MHz
298.15 K, x1 = 0.1449 | – | – | – | – | – | – | – | 2.51 ± 0.026
298.15 K, x1 = 0.1859 | – | – | – | – | – | – | – | 2.68 ± 0.027
298.15 K, x1 = 0.2493 | – | – | – | – | – | – | – | 2.614 ± 0.026
298.15 K, x1 = 0.3029 | – | – | – | – | – | – | – | 2.54 ± 0.026
298.15 K, x1 = 0.3845 | – | – | – | – | – | – | – | 2.36 ± 0.024
298.15 K, x1 = 0.4985 | – | – | – | – | – | – | – | 2.08 ± 0.021
298.15 K, x1 = 0.6954 | – | – | – | – | – | – | – | 1.68 ± 0.017
298.15 K, x1 = 0.9013 | – | – | – | – | – | – | – | 1.39 ± 0.014
298.15 K, x1 = 1 | – | – | – | – | – | – | – | 1.318 ± 0.013
303.15 K, x1 = 0.0463 | 1.56 ± 0.028 | 1.57 ± 0.028 | 1.57 ± 0.028 | 1.57 ± 0.028 | 1.57 ± 0.028 | 1.58 ± 0.028 | 1.58 ± 0.028 | –
303.15 K, x1 = 0.0987 | 2.36 ± 0.029 | 2.37 ± 0.03 | 2.37 ± 0.03 | 2.38 ± 0.03 | 2.38 ± 0.03 | 2.38 ± 0.03 | 2.38 ± 0.03 | –
303.15 K, x1 = 0.1449 | 2.71 ± 0.029 | 2.71 ± 0.029 | 2.71 ± 0.029 | 2.71 ± 0.029 | 2.71 ± 0.029 | 2.71 ± 0.029 | 2.71 ± 0.029 | –
303.15 K, x1 = 0.1859 | 2.87 ± 0.029 | 2.88 ± 0.029 | 2.89 ± 0.029 | 2.89 ± 0.029 | 2.89 ± 0.029 | 2.89 ± 0.029 | 2.9 ± 0.029 | –
303.15 K, x1 = 0.2493 | 2.85 ± 0.029 | 2.85 ± 0.029 | 2.85 ± 0.029 | 2.85 ± 0.029 | 2.85 ± 0.029 | 2.85 ± 0.029 | 2.85 ± 0.029 | –
303.15 K, x1 = 0.3029 | 2.78 ± 0.028 | 2.78 ± 0.028 | 2.78 ± 0.028 | 2.79 ± 0.028 | 2.79 ± 0.028 | 2.79 ± 0.028 | 2.79 ± 0.028 | –
303.15 K, x1 = 0.3845 | 2.608 ± 0.026 | 2.612 ± 0.026 | 2.614 ± 0.026 | 2.616 ± 0.026 | 2.616 ± 0.026 | 2.617 ± 0.026 | 2.617 ± 0.026 | –
303.15 K, x1 = 0.4985 | 2.33 ± 0.024 | 2.33 ± 0.024 | 2.33 ± 0.024 | 2.33 ± 0.024 | 2.33 ± 0.024 | 2.33 ± 0.024 | – | –
303.15 K, x1 = 0.6954 | 1.908 ± 0.019 | 1.909 ± 0.019 | 1.91 ± 0.019 | 1.911 ± 0.019 | 1.911 ± 0.019 | 1.911 ± 0.019 | – | –
303.15 K, x1 = 0.9013 | 1.602 ± 0.016 | 1.604 ± 0.016 | 1.605 ± 0.016 | 1.606 ± 0.016 | 1.606 ± 0.016 | 1.607 ± 0.016 | – | –
303.15 K, x1 = 1 | 1.525 ± 0.015 | 1.526 ± 0.015 | 1.526 ± 0.015 | 1.527 ± 0.015 | 1.527 ± 0.015 | 1.527 ± 0.015 | – | –

Settings | electrical conductivity, 303.15 K [S/m] | mass density, 298.15 K [kg/m3] | viscosity, 303.15 K [mPa·s]
x1 = 0.0463 | 1.58 ± 0.028 | – | –
x1 = 0.0987 | 2.38 ± 0.03 | 1103.29 ± 8.8 | 2.56 ± 0.06
x1 = 0.1449 | 2.71 ± 0.029 | – | –
x1 = 0.1859 | 2.9 ± 0.029 | 1087.38 ± 8.7 | 3.64 ± 0.08
x1 = 0.2493 | 2.86 ± 0.029 | – | –
x1 = 0.3029 | 2.79 ± 0.028 | 1069.77 ± 8.6 | 5.53 ± 0.12
x1 = 0.3845 | 2.619 ± 0.026 | – | –
x1 = 0.4985 | 2.33 ± 0.024 | 1047.53 ± 8.4 | 9.91 ± 0.22
x1 = 0.6954 | 1.912 ± 0.019 | 1031.19 ± 8.3 | 16.03 ± 0.36
x1 = 0.9013 | 1.608 ± 0.016 | 1018.43 ± 8.2 | 23.88 ± 0.54
x1 = 1 | 1.527 ± 0.015 | 1013.45 ± 8.1 | 28.53 ± 0.65
